Where two headings read alike, the source gives them in different places.
Key:
[1] = system: peripheral blood-derived, immunobeads-purified CD56+ cells; assay: Assay of CD62L expression on NK cell surface, purified peripheral blood CD56+ cells; type: cell-based, human; conditions: 2.5-7.5 mM nicotinamide, 3 weeks in culture
Protocol: Cultures were initiated with peripheral-blood-derived CD56+ cells purified with immunomagnetic beads and activated with cytokines (including IL-2 and IL-15) with or without nicotinamide (2.5, 5 and 7.5 mM). NK cells were stained with specific antibodies for the specified surface markers (e.g., CD62L) before activation in culture and after 3 weeks incubation with nicotinamide, and then monitored by FACS.

[2] = system: peripheral blood NK (T-cell depleted) cells; assay: Expansion of CD3+ or CD3+/CD19+ depleted peripheral blood NK cells in culture bags; type: cell-based, human
Protocol: For depletion procedure, total nuclear cells from umbilical cord blood (CB), bone marrow (BM) or peripheral blood (PB) cells were layered on a Ficoll-Hypaque gradient (1.077 g/mL; Sigma), and centrifuged at 800×g for 30 minutes for separation of the mononuclear cells. The cells in the interface layer were collected and washed three times in phosphate-buffered saline (PBS) (Biological Industries, Israel) containing 0.5% HSA. Optionally, cells are not separated on the Ficoll-Hypaque gradient but washed three times in phosphate-buffered saline (PBS) (Biological Industries) containing 0.5% HSA (“total mononuclear fraction”). CD3 cells were depleted using the CD3 cell isolation kit (Miltenyi Biotec Bergisch, Gladbach, Germany) and the entire CD3 negative cell fraction was cultured. Optionally, CD19 cells were also depleted using the CD19 cell isolation kit (Miltenyi Biotec Bergisch, Gladbach, Germany) and the CD3/CD19 negative (CD3/CD19 depleted) cell fraction was cultured. Optionally, RosetteSep Human CD3+ Cell Depletion Cocktail (Stem Cell Technologies, RosestteSep, Cat. No. 15661)] was used for CD3 depletion and the entire CD3 negative cell fraction was cultured. After negative depletion the cells were counted and characterized by FACS analysis.
3. CD3+ depleted, or CD3+/CD19+ depleted mononuclear cell fraction from PB, BM and CB were cultured in culture bags, T-Flasks or 24 well plates at a concentration of 1−1000×10^4 cells/ml in MEMα/10% FCS or CellGro SCGM (Cell Genix)/5% Human Serum/LiforCell® FBS Replacement (Lifeblood Products) containing the following human recombinant cytokines: interleukin-2 (IL-2) or and interleukin-15 (IL-15), with or without FLT-3 or SCF or FLT3 and SCF (5-50 ng/ml) (Perpo Tech, Inc., Rocky Hill, N.J., USA), all combinations, with or without nicotinamide and incubated at 37° C. in a humidified atmosphere of 5% CO2 in air. The cultures were topped weekly or twice a week with the same volume of fresh medium containing growth factors with or without nicotinamide. Cultures were later supplemented once or several times a week with IL-2 and or IL-2 and IL-15. To estimate number of cells in culture, cell samples were counted following staining with trypan blue. At various time points, samples are taken to FACS analysis to assay the relative fractions of NK cells, CD56+CD3−, CD56+CD3+, CD34+CD56+, CD56+CD16+ and/or CD56+ NKG2A cells.
In order to calculate the number of NK cells on day 0, the total number of cells seeded on day 0 was multiplied by the percent of CD56+/CD3− cells measured by the FACS on day 0.
To determine total number of cells on day 7, 14 and 21, the cell count/ml was multiplied by the volume of the culture medium. In order to determine the number of NK cells in culture, the total number of cells in culture was multiplied by the percent of CD56+/CD3− cells measured with the FACS on days 7, 14 or 21. To measure fold expansion, total number of NK cells on days 7, 14 and 21 was divided by total number of NK cells seeded in culture on day-0.

[3] = system: irradiated NOD/SCID mice; assay: In-vivo homing and engraftment of cultured human NK cells; conditions: 4 days post infusion
Protocol: NK cells were expanded with or without 2.5 mM or 5.0 mM nicotinamide, as described above. After 2-3 weeks in culture, similar numbers (15×10^6) of cells were infused into irradiated (350 Rad) NOD/SCID mice. Mice were sacrificed 4-days post infusion. Spleen, bone marrow and peripheral blood were analyzed for the homing and engraftment of human NK (CD45+CD56+) cells using […], in order to distinguish them from endogenous cells. Engraftment is expressed as the % of NK cells having the transplanted lineage (CD45+CD56+) using anti-human specific antibodies from the total number of mouse endogenous cells identified in the tissue.
Irradiated (350 Rad) NOD/SCID mice received 15×10^6 cells from human peripheral blood NK (T-cell depleted) cultures maintained for up to 3 weeks with (NAM 2.5 mM and NAM 5 mM) or without (NAM 0) nicotinamide. Upon sacrifice of the mice 4 days post infusion, samples of spleen, bone marrow and peripheral blood were evaluated by FACS for the presence of human NK cells (CD56+CD45+) using human specific Abs.

[4] = system: K562 target cells; type: cell-based
Protocol: (§1) “Killing” assay: NK cells (effectors cells=E) are combined with K562 or BL2 (target cells=T), or bi-phenotypic leukemia cells at different E to T ratio (E:T). BL2 or K562, or bi-phenotypic leukemia target cells in PBS were labeled with 1 ng/ml CFSE (Invitrogen) for 15 min at 37° C. Calf Serum was added to the cells for 15 minutes, the cells were then washed and resuspended in RPMI medium. 100 μL of bi-phenotypic leukemia, BL2 or K562 cells were placed in a 96 round bottom plate at a concentration of 5×10^3 cells per well. 100 μL of non-stained NK cells were added to the bi-phenotypic leukemia, BL2 or K562 cells at a E:T ratio of 1:1, 2.5:1, 5:1, 10:1 or 20:1 (5×10^3, 1.25×10^4, 2.5×10^4, 5×10^4 and 1×10^5 cells/well, respectively, as indicated). Between 2-48 hours later. Killing of target cells in cell lines such as K562 and BL-2 was determined by FACS as a percentage propidium-iodine (PI)-positive (dead) CFSE-labeled cells. Killing of the primary leukemia cells was determined by counting with the FACS the number of CFSE stained cells that remained in the culture after their culture with the NK cells. A lower number of CFSE+ cells is indicative of higher level of killing.

[5] = system: human primary bi-phenotypic leukemia cells; type: cell-based; conditions: after 24 hours, NK cells of 2 donors (Donor A and Donor B)
Protocol: as §1

[6] = system: BL2 target cells; type: cell-based; conditions: 2.5 mM or 5.0 mM nicotinamide for 3 weeks; E:T 1:1 to 10:1
Protocol: as §1

NC(=O)c1cccnc1 [nicotinamide]
expression of CD62L following activation in culture with IL-2 [1]: remarkable increase
NK expansion relative to control cultures without nicotinamide ([2]; 2.5 mM and 5 mM nicotinamide, after 14 and 21 days, IL-2 or IL-2+IL-15): significantly higher
CD56+CD3- NK cell proliferation ([2]; 2.5 mM and 5 mM, 21 days, seeding 2-, 5-, and 10x10^5 cells): profound enhancement
NK (CD56+CD3-) cells among cells in culture ([2]; 2-3 weeks in culture with nicotinamide, seeded 2-10% NK cells): more than 90%
non-NK cell fraction vs control cultures ([2]; 2.5 and 5 mM nicotinamide, 21 days post seeding): smaller
NK cell proliferation from day 14 to day 21 ([2]; grown with nicotinamide): continue to proliferate
localization and engraftment, higher vs lower nicotinamide concentration ([3]; 5 mM compared with 2.5 mM): stronger effect
localization and engraftment of human NK cells (CD56+CD45+) in spleen, bone marrow and peripheral blood ([3]; 15x10^6 cells cultured with 2.5 mM or 5 mM nicotinamide): increased localization and engraftment
killing (cytotoxic) potential vs cells cultured in growth factors only ([4]; 2.5 mM or 5.0 mM nicotinamide for 3 weeks, E:T 1:1 to 10:1): far greater
killing (cytotoxic) potential vs cells cultured in growth factors only ([4]; E:T ratios of 1:5, 1:10 and 1:20 NK cells per target): far greater
cytotoxic potential of expanded NK cells [5]: increased activation of NK cells killing potential
killing (cytotoxic) potential vs cells cultured in growth factors only [6]: far greater
